Earlier results, collected in US9463180B2, “Treatment of molluscum contagiosum” (QUADEX PHARMACEUTICALS, LLC, priority 2013, dated 2016).

Tested on: molluscum contagiosum
Conditions: small studies; applied 3 times per week, left on skin 6 to 10 hours

In the case of CC(C)Cn1cnc2c(N)nc3ccccc3c21 [Imiquimod], the success rate is given as “about 80%”.
